The values that follow are results of earlier work, collected in publication PMC10044445, “Tuning the Anthranilamide Peptidomimetic Design to Selectively Target Planktonic Bacteria and Biofilm” (Antibiotics, 2023).

Among the test systems are MRC-5 human fibroblasts; E. coli; S. aureus.
Common to all, as to set-up: method as in PMID 30070287
Common to all, as to details: cited from earlier work

pIC50: −log10 of the molar value. ≈ marks a conversion by molar mass, not a printed value. Some results are limits rather than exact numbers.

One may read the pIC50 as −log10 of the IC50, conventionally taken in molar units. On to `NCCNC(=O)[C@H](Cc1c[nH]c2ccccc12)NC(=O)c1cc(Br)ccc1NC(=O)c1ccc2ccccc2c1` [Compound 12a], for which the negative logarithm of the IC50 (pIC50) with MRC-5 human fibroblasts was above 4.70. The “MIC E. coli” value in the data set on E. coli (Table 2, parent compound) was above 125 µM. For the same compound, in the data set on E. coli (value of earlier paper), the “MIC90 E. coli” value is recorded as above 125 µM. Moreover, the “MIC S. aureus” value with S. aureus (Table 2, parent compound) is on record as 3.9 µM (≈ 2.33 µg/mL). In addition, the “MIC90 S. aureus” value with S. aureus (value of earlier paper) is listed as 3.9 µM (≈ 2.33 µg/mL).
